Measurements taken from patent US6649355B2, “Lipoxygenase proteins and nucleic acids” (priority 1998, dated 2003).

Tests used:
[1] = target: T1, mouse 8S-lipoxygenase (8-Lox) (Mus musculus, UniProt O35936); format: biochemical
T1 sequence (O35936 1-677): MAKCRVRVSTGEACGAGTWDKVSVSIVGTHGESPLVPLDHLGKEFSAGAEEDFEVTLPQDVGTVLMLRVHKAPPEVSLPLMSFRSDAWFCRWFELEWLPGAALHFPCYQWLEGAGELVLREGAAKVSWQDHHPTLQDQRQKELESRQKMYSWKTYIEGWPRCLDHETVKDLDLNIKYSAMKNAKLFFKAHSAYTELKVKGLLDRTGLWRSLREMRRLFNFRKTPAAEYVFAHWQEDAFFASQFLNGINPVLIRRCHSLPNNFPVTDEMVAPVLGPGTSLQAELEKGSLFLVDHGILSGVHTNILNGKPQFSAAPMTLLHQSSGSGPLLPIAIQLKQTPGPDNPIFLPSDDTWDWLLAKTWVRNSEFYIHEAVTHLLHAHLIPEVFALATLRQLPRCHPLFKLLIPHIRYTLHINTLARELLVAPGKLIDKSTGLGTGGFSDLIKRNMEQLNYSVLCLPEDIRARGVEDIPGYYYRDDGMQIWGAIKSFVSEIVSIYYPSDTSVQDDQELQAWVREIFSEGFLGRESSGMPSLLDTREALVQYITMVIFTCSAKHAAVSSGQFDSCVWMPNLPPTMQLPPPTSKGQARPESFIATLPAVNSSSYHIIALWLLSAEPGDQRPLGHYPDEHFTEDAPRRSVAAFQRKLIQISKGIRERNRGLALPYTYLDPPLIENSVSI

[2] = test system: peroxisome proliferator-activated receptor, PPAR-a; conditions: cited from earlier work
[3] = target: T2, 15-Lox-2 (second type of human 15S-lipoxygenase) (Homo sapiens, UniProt O15296, Q656R); assay: Lipoxygenase metabolism of 14C substrates by the new 15S-lipoxygenase expressed in HEK 293 cells, HPLC analysis; format: biochemical; conditions: 2 mM added; [14C]arachidonic acid as substrate
T2 construct: Initially, five full length clones were expressed in HEK 293 cells; expressed in transfected cells; host or cells: HEK 293 cells, transient transfection (pCDNA3 or pCR3); sonicated cells incubated with substrate
T2 sequence (O15296 1-676 Q656R): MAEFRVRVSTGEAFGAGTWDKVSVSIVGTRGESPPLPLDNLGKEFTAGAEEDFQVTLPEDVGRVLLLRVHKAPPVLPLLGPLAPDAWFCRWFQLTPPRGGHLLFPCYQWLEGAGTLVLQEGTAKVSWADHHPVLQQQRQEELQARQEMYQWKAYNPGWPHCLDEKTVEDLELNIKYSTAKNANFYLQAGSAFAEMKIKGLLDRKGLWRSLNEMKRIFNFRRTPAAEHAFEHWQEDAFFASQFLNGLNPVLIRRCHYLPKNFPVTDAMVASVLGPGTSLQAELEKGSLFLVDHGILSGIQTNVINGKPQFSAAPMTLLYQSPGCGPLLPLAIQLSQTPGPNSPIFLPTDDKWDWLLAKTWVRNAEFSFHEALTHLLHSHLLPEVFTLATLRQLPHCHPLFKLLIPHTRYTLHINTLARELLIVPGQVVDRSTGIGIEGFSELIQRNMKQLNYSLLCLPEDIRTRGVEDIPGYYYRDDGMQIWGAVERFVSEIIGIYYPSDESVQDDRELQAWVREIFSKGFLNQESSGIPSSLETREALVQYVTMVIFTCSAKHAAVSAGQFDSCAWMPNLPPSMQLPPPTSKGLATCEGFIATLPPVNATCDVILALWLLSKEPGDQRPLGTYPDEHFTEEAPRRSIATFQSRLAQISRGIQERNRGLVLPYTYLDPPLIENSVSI
Excerpt: (§1) The PCR products corresponding to the open reading frame of the cDNA were subcloned into the pCDNA3 vector (Invitrogen), or in some experiments ligated directly into pCR3 (Invitrogen), and expressed by transient transfection in human embryonic kidney (HEK) 293 cells as described (Funk et al. (1996) J. Biol. Chem. 271, 23338-23344).

[4] = target: T3, blood cell 15S-lipoxygenase (15-Lox-1) (Homo sapiens, UniProt P16050); assay: Lipoxygenase metabolism of 14C substrates by the blood cell 15S-lipoxygenase analysed in the same experiments; format: biochemical; conditions: applicants' experiments
T3 construct: expressed in transfected cells
T3 sequence (P16050 1-662): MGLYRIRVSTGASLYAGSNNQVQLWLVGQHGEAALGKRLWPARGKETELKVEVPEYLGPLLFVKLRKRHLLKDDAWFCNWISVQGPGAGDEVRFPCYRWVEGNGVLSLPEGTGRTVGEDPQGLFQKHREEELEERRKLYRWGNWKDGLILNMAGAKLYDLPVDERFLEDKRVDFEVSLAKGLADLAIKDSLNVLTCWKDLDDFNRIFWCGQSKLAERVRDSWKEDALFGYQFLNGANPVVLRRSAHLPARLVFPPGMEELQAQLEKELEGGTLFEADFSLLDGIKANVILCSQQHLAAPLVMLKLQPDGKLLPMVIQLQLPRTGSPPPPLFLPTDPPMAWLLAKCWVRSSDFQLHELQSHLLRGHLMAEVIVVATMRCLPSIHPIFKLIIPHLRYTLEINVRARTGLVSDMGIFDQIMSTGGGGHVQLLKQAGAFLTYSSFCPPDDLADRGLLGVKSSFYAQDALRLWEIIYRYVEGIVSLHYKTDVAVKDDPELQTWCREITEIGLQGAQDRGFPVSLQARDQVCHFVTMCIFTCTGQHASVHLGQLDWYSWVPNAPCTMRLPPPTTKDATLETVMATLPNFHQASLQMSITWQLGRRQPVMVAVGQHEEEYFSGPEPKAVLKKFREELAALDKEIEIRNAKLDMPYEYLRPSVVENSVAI
Excerpt: as §1

[5] = test system: 8S-lipoxygenase expression in mouse skin; assay: Effect of topical phorbol ester on 8S-lipoxygenase expression in mouse skin (activity assay, Northern, Western, immunohistochemistry); format: in vivo; conditions: for induction of 8S-lipoxygenase in skin: black Swiss mixed breed (outbred) pups, dorsal skin, topical
Experimental: FIG. 9A: Normal-phase HPLC analysis of 8S-lipoxygenase activity in homogenates of back skin of 7-8-day-old black Swiss pups following 24 hr treatment with vehicle (acetone) or phorbol ester ([…]).
Phorbol ester (PMA, 10 nmol) dissolved in […] of acetone was applied topically onto dorsal skin of 6-7-day-old mice. At 21-24 h after PMA-treatment, the mice were euthanized, and epidermis was prepared from the frozen dorsal skin as previously described (Hughes et al. (1991) Biochim. Biophys. Acta 1081:347-354). The frozen epidermis was dropped into guanidinium thiocyanate solution, the lysis buffer from the RNeasy RNA extraction kit (QIAGEN). After a brief sonication using an ultrasonic probe (2 sec, twice), total RNA was extracted according to the manufacturer's instructions. Approximately […] of total RNA was recovered in […] of water. Twenty microliter aliquots were used in […] reactions for first strand cDNA synthesis using an oligo-dT-adaptor primer (Brash et al. (1996) J. Biol. Chem. 271:20949-20957). One microliter aliquots of CDNA were used directly in PCR reactions.
Poly(A)+RNA was prepared from PMA- or acetone-treated frozen dorsal skin using TRI REAGENT® (Molecular Research Center, Inc.) and Oligotex™ (Qiagen) according to the manufacturers' instructions. The poly(A)^+ RNA was electrophoresed in 1% agarose/formaldehyde gel and blotted to a Hybond-H^+ nylon membrane (Amersham). The membrane was hybridized with ^32P-labeled DNA probe (complementary with a 0.6-kb EcoRV/BamHI fragment of mouse epidermal 8S-lipoxygenase) prepared using the Multiprime DNA labeling kit and Rapid-hybridization buffer (Amersham), and then washed according to the manufacturer's specifications. Blots were exposed to Fuji x-ray film at −80° C. Mouse cyclophilin cDNA was used as a house-keeping gene to access loading of RNA.
After quantitation by Bradford assay (Bio-Rad), protein was separated by SDS polyacrylamide gel electrophoresis (SDS-PAGE) and then transferred electrophoretically to Hybond ECL nitrocellulose membranes (Amersham). These were probed using a rabbit polyclonal antibody raised against the human 15-Lox-2. This antibody recognises 15-Lox-2 and the mouse 8S-lipoxygenase, but not the human reticulocyte type of 15S-lipoxygenase, as more fully described below. Donkey anti-rabbit Ig linked with horseradish peroxidase (Amersham) was the secondary antibody. Specifically bound protein was detected by chemiluminescence using the ECL Western blotting detection reagents (Amersham).
The dorsal and tail skin of six to seven (6-7)-day-old mice were treated with acetone or PMA (10 nmol for dorsal skin, 2 nmol for tail skin). After 24 h, the animals were euthanized and the dorsal and tail skin were washed with soap and then rinsed thoroughly with water. […]

## CCCCC/C=C\C/C=C\C/C=C\C/C=C\CCCC(=O)O [arachidonic acid]
[1]
  added arachidonic acid converted to 8S-HPETE: 30-40%
  product formed from the substrate: exclusively to 8S-hydroperoxyeicosatetraenoic acid

## CCCCC/C=C\C/C=C\C=C\[C@@H](O)C/C=C\CCCC(=O)O [8S-HETE]
[2]
  activity at PPAR-a: strong activator

## Nc1ncnc2c1ncn2[C@@H]1O[C@H](COP(=O)(O)OP(=O)(O)OP(=O)(O)O)[C@@H](O)[C@H]1O [ATP]
[3]
  effect of addition to the incubation media on enzymatic activity: no significant effect

## CCCCC/C=C\C/C=C\CCCCCCCC(=O)O [linoleic acid]
[1]
  product formed from the substrate: exclusively to 9S-HODE
[4]
  extent of metabolism compared with arachidonic acid: metabolized more extensively than arachidonic acid

## [Ca+2] [calcium]
[3]
  effect of addition to the incubation media on enzymatic activity: no significant effect

## CCCCCCCCCCCCCC(=O)O[C@@H]1[C@@H](C)[C@@]2(O)[C@@H](C=C(CO)C[C@]3(O)C(=O)C(C)=C[C@@H]23)[C@@H]2C(C)(C)[C@]12OC(C)=O [PMA, Phorbol-12-myristate-13-acetate]
[5]; Sencar strain, 6-10-day-old pups, high constitutive activity
  induction of 8S-lipoxygenase activity in skin: little extra induction
[5]; 24 h
  induction of 8S-lipoxygenase in skin: strongly induced
[5]; 24 h, listed as phorbol ester
  induction of 8S-lipoxygenase in skin: strong induction
[5]; black Swiss, dorsal and tail skin, topical in acetone, 24 h
  histological response of skin (epidermis): marked hyperproliferative response
